Laboratory results reported in patent publication US20140206681A1, “BTK INHIBITORS” (priority 2013, published 2014).

Key:
[1] = system: HeLa cells; test: [3H]Adenosine uptake functional cellular assay; format: cell-based; conditions: Homo sapiens, HeLa, accumulation of [3H]adenosine into HeLa cells; compound range 10 μM to […]; read-out: Adenosine uptake inhibition IC50
Experimental: Compounds are also screened in an adenosine uptake functional cellular assay using the protocol described below. The adenosine uptake inhibition assay may be used to identify compounds with the potential for a negative cardiovascular side effect.
Adenosine uptake activity was determined by monitoring the accumulation of tritiated adenosine into HeLa cells (ATCC catalog # CCL-2) using a PMT-based radiometric detection instrument. […] These cells were incubated overnight at 37° C. in a humidified atmosphere with 5% (v/v) CO2. After this time the growth medium was removed and replaced with 40 μL assay medium comprising: Hanks balanced salts solution (HBSS; Thermo Fisher Catalog # SH30268.01)+5% (v/v) FBS. […] 40 μL of compound in the assay medium was dispensed into individual wells of the Cytostar-T plates and the plates were incubated for 30 minutes under ambient laboratory conditions. Following this incubation, 20 μL of 500 nM [^3H]adenosine (American Radiolabeled Chemicals Inc. Catalog # ART0287) was added in the assay medium and incubated for a further 60 minutes under ambient laboratory conditions. The amount of radiolabel accumulation was then determined using a Perkin Elmer Topcount NXT microplate reader. In brief, HeLa cells adhere to the bottom of the Cytostar-T plate, uptake of [^3H]adenosine into these cells brings the radiolabel into sufficient proximity to excite the scintillant in the base of the plates. These events are captured by single PMT, time-resolved coincidence counting. IC50 values were determined by 4 parameter robust fit of counts per second values vs. (Log10) compound concentrations.

[2] = target: T1, BTK enzyme (recombinant full-length BTK, hBTK) (Homo sapiens, UniProt Q06187); test: BTK enzyme activity assay, LANCE TR-FRET; format: biochemical; conditions: 50 pM hBTK, 2 μM biotin-A5-peptide, 25 μM ATP; 60 min compound & enzyme incubation; read-out: IC50 BTK activity value
T1 construct: recombinant protein from baculovirus-transfected Sf9 cells: full-length BTK, 6HIS-tag cleaved; 6HIS (cleaved yes); made in house; host or cells: baculovirus-transfected Sf9 cells
T1 sequence (Q06187 whole entry): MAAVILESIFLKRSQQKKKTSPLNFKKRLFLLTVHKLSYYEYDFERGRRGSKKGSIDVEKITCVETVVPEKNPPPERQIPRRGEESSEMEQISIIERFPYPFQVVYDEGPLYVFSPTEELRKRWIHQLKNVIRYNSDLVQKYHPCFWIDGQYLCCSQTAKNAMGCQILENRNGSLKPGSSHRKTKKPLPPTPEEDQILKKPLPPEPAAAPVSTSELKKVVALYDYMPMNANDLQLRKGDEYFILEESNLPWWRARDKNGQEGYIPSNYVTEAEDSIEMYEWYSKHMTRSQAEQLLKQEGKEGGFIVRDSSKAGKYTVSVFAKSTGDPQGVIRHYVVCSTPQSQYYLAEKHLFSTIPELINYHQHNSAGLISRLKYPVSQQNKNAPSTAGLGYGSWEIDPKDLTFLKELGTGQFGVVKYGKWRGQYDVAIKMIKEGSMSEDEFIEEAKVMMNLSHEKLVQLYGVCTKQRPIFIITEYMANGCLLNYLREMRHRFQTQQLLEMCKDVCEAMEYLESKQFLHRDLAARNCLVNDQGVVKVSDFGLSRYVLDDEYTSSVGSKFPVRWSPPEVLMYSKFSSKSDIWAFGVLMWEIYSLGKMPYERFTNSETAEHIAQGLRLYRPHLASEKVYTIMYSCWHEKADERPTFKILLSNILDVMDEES

Row | SMILES | IC50 [1] | IC50 [2]
1 | C[C@H]1OC(=O)N2C[C@H](c3nc(-c4ccc(C(=O)Nc5cc(C(F)(F)F)ccn5)cc4F)c4c(N)nccn34)CC[C@@H]12 [Example 31, 4-{8-amino-3-[(1R,6R,8aS)-1-methyl-3-oxohexahydro[1,3]oxazolo[3,4-a]pyridin-6-yl]imidazo[1,5-a]pyrazin-1-yl}-3-fluoro-N-[4-(trifluoromethyl)pyridin-2-yl]benzamide] | 104 nM | 0.096 nM
2 | C[C@@H]1OC(=O)N2C[C@H](c3nc(-c4ccc(C(=O)Nc5cc(C(F)(F)F)ccn5)cc4F)c4c(N)nccn34)CC[C@@H]12 [Example 33, 4-{8-amino-3-[(1S,6R,8aS)-1-methyl-3-oxohexahydro[1,3]oxazolo[3,4-a]pyridin-6-yl]imidazo[1,5-a]pyrazin-1-yl}-3-fluoro-N-[4-(trifluoromethyl)pyridin-2-yl]benzamide] | 90.4 nM | 0.17 nM
3 | COc1cc(C(=O)Nc2cc(C3CC3)ccn2)ccc1-c1nc([C@@H]2CC[C@H]3CCC(=O)N3C2)n2ccnc(N)c12 [Example 38, 4-{8-amino-3-[(6R,8aS)-3-oxooctahydroindolizin-6-yl]imidazo[1,5-a]pyrazin-1-yl}-N-(4-cyclopropylpyridin-2-yl)-3-methoxybenzamide] | 543 nM | 1.9 nM
4 | Nc1nccn2c([C@@H]3CC[C@H]4CNCC(=O)N4C3)nc(-c3ccc(C(=O)Nc4cc(C(F)(F)F)ccn4)cc3)c12 [Example 40, 4-{8-amino-3-[(7R,9aS)-4-oxooctahydro-2H-pyrido[1,2-a]pyrazin-7-yl]imidazo[1,5-a]pyrazin-1-yl}-N-[4-(trifluoromethyl)pyridin-2-yl]benzamide] | 186 nM | 0.22 nM
5 | Nc1nccn2c([C@H]3CC[C@@H]4CNCC(=O)N4C3)nc(-c3ccc(C(=O)Nc4cc(C(F)(F)F)ccn4)cc3)c12 [Example 41, 4-{8-amino-3-[(7S,9aR)-4-oxooctahydro-2H-pyrido[1,2-a]pyrazin-7-yl]imidazo[1,5-a]pyrazin-1-yl}-N-[4-(trifluoromethyl)pyridin-2-yl]benzamide] | 793 nM | 4 nM

Other lines, results leading:

Row | IC50 [1] | IC50 [2] | SMILES
6 | 67 nM | 0.45 nM | Nc1nccn2c([C@@H]3CC[C@H]4CCC(=O)N4C3)nc(-c3ccc(C(=O)Nc4cc(C(F)(F)F)ccn4)c(F)c3)c12 [Example 24, 4-{8-amino-3-[(6R,8aS)-3-oxooctahydroindolizin-6-yl]imidazo[1,5-a]pyrazin-1-yl}-2-fluoro-N-[4-(trifluoromethyl)pyridin-2-yl]benzamide]
7 | 57.4 nM | 0.12 nM | Nc1nccn2c([C@@H]3CC[C@H]4COCC(=O)N4C3)nc(-c3ccc(C(=O)Nc4cc(C(F)(F)F)ccn4)cc3F)c12 [Example 39]
8 | 88 nM | 0.52 nM | Nc1nccn2c([C@@H]3CC[C@H]4CCC(=O)N4C3)nc(-c3ccc(C(=O)Nc4cc(C(F)(F)F)ccn4)c(Cl)c3)c12 [Example 42, 4-{8-amino-3-[(6R,8aS)-3-oxooctahydroindolizin-6-yl]imidazo[1,5-a]pyrazin-1-yl}-2-chloro-N-[4-(trifluoromethyl)pyridin-2-yl]benzamide]
9 | 88.8 nM | 0.095 nM | Nc1nccn2c([C@H]3CC[C@@H]4CCCC(=O)N4C3)nc(-c3ccc(C(=O)Nc4cc(C(F)(F)F)ccn4)cc3F)c12 [Example 44, 4-{8-amino-3-[(3S,9aS)-6-oxooctahydro-2H-quinolizin-3-yl]imidazo[1,5-a]pyrazin-1-yl}-3-fluoro-N-[4-(trifluoromethyl)pyridin-2-yl]benzamide]
10 | 227 nM | 1.7 nM | Nc1nccn2c([C@@H]3CC[C@H]4CCCC(=O)N4C3)nc(-c3ccc(C(=O)Nc4cc(C(F)(F)F)ccn4)cc3F)c12 [Example 45, 4-{8-amino-3-[(3R,9aR)-6-oxooctahydro-2H-quinolizin-3-yl]imidazo[1,5-a]pyrazin-1-yl}-3-fluoro-N-[4-(trifluoromethyl)pyridin-2-yl]benzamide]
